# Measured values: patent USRE39616E1, “Aminoindan derivatives” (priority 1996, dated 2007)
# Like-named read-outs stand apart in the source and are kept apart here.
# Assays:
# MAO-A [1] = target: T1, MAO-A (Mus musculus, UniProt Q64133); assay: Inhibition of MAO activity ex vivo (brain); assay type: in vivo, mice; conditions: mice, brain tissue
# T1 construct: from tissue; host or cells: mouse brain
# T1 sequence (Q64133 1-526): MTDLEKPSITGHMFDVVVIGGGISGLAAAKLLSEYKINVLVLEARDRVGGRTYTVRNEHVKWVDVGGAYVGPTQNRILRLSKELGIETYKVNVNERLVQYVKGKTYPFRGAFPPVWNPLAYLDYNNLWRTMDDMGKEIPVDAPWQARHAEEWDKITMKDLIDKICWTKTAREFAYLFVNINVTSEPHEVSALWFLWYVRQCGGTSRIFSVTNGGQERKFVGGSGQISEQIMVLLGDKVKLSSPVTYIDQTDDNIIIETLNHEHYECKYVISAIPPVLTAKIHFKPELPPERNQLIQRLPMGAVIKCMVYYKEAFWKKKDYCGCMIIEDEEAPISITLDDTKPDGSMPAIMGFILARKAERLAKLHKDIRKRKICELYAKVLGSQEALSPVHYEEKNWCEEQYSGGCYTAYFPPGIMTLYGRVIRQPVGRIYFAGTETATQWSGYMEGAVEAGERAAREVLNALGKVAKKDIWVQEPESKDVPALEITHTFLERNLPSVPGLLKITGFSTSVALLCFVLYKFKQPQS
# Description: (§1) Substrate concentrations used were 50 μM (PEA) and 1 mM (5-HT).
# (§2) Male Sabra mice, weighing 45-50 g were injected with test compound solutions (prepared in 0.9% saline). Each dose was administered to two or three mice. The mice were sacrificed two hours after drug administration or at a time corresponding to the peak AChE inhibition time (see Table 11). The brain and liver were rapidly dissected and stored in appropriate vials on ice. The tissues were weighed, diluted to ½ in sucrose 0.3M and stored at −20° C. before performance of the MAO assay described above. The results given in Table 11 relate to measurements made on brain tissue only.
# MAO-B [2] = target: T2, MAO-B (Mus musculus, UniProt Q8BW75); assay: Inhibition of MAO activity ex vivo (brain); assay type: in vivo, mice; conditions: mice, brain tissue
# T2 construct: from tissue; host or cells: mouse brain
# T2 sequence (Q8BW75 1-520): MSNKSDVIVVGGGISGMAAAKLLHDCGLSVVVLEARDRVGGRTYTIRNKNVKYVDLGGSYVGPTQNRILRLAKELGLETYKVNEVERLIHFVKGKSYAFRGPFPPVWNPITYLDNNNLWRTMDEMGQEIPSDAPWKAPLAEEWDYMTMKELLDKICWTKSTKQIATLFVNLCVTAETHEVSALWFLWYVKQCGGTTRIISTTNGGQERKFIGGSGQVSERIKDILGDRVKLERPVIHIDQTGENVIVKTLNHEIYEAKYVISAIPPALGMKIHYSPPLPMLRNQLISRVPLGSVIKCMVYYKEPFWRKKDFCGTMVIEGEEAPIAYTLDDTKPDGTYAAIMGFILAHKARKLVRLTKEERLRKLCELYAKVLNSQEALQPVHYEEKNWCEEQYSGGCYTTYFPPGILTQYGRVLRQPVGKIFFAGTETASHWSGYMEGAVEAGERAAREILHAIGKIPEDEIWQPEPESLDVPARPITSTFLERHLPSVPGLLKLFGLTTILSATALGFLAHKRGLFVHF
# Description: as §1, §2
# whole brain AChE = target: T3, whole brain AChE (Mus musculus, UniProt P21836); conditions: for AChE Inhibition Ex vivo ED50 (AC): mice, whole brain, at peak of activity; for AChE Inhibition Time to peak activity t: mouse, in vivo
# T3 sequence (P21836 32-614): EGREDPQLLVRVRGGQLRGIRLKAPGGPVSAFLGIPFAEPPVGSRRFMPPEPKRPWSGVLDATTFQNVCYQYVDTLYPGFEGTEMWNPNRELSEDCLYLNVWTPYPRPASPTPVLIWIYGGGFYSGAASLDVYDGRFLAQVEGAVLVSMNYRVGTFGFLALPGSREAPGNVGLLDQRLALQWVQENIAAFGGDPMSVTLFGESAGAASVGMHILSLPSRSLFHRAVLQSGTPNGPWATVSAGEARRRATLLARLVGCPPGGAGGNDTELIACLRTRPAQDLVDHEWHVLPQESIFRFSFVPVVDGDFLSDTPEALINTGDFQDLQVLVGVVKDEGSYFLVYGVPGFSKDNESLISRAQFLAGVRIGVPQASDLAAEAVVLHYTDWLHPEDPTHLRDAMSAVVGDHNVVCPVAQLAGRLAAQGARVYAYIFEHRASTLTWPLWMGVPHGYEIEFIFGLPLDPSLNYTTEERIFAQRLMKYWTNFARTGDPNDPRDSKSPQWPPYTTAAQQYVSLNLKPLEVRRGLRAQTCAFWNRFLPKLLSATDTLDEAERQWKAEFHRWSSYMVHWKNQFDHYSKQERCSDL
# MAO-B [3] = target: T4, MAO-B (Rattus norvegicus, UniProt P19643); assay: Inhibition of MAO activity in vitro, PEA as substrate; assay type: biochemical; parameters: The MAO enzyme source was a homogenate of rat brain in 0.3M sucrose; from tissue; host or cells: rat brain homogenate, 600 g supernatant
# T4 sequence (P19643 1-520): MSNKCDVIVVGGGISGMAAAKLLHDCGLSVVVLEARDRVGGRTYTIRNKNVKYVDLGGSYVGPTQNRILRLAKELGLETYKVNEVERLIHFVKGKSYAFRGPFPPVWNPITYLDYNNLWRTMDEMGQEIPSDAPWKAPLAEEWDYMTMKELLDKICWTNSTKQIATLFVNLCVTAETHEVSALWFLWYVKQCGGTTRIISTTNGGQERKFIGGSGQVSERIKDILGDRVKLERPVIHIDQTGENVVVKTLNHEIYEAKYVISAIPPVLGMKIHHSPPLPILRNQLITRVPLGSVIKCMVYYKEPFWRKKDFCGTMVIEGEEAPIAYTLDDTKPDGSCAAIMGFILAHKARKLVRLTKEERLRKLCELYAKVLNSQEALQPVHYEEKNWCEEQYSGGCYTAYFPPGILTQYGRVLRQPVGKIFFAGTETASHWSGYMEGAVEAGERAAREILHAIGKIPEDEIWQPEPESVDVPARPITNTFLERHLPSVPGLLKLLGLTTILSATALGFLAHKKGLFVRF
# Description: as §1
# MAO-A [4] = target: T5, MAO-A (Rattus norvegicus, UniProt P21396); assay: Inhibition of MAO activity in vitro, 5-HT as substrate; assay type: biochemical; parameters: The MAO enzyme source was a homogenate of rat brain in 0.3M sucrose; from tissue; host or cells: rat brain homogenate, 600 g supernatant; conditions: 5-HT substrate
# T5 sequence (P21396 1-526): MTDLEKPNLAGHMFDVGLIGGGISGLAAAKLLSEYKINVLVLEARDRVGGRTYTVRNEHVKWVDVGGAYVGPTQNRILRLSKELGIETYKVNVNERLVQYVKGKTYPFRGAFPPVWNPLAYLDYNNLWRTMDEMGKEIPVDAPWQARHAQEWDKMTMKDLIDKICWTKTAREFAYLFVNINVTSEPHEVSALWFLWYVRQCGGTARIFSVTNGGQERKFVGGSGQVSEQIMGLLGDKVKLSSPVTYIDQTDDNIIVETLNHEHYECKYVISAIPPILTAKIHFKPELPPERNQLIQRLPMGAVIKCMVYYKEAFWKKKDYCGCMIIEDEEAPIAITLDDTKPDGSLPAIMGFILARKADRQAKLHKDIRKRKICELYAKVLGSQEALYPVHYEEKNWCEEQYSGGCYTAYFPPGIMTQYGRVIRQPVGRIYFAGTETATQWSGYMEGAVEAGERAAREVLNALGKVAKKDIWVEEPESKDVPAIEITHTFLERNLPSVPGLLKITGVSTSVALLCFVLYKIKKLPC
# Description: as §1
# [5] = target: T6, Human erythrocyte acetylcholinesterase (Homo sapiens, UniProt P22303); assay: biochemical; assay type: biochemical
# T6 construct: Human erythrocyte acetylcholinesterase (type XIII, Sigma Israel); purchased Sigma Israel type XIII; host or cells: human erythrocytes
# T6 sequence (P22303 32-617 isoform P22303-2 limits assumed): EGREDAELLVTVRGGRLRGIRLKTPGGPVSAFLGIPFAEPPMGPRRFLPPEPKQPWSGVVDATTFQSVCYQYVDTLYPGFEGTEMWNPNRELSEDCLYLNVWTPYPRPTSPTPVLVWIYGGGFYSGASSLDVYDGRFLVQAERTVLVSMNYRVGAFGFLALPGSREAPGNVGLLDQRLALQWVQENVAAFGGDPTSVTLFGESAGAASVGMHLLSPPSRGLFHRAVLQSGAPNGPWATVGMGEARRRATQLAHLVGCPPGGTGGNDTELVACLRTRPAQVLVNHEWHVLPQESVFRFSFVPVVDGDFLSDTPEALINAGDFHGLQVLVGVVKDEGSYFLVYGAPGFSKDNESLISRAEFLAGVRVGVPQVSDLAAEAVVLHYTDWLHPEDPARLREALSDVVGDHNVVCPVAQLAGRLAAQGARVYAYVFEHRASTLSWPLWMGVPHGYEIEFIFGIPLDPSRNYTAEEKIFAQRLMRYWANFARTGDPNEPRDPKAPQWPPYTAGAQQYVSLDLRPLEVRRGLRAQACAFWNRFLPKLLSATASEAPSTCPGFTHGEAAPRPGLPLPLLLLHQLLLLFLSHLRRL
# Description: Human erythrocyte acetylcholinesterase (type XIII, Sigma Israel), was prepared in a stock solution of 1 U/ml, containing Triton (1%) and bovine serum albumin (0.05%) in phosphate buffer (pH 8). The enzyme (0.05U) was incubated with 3-5 different concentrations of test compound (in triplicate) for periods of from 15 to 60 minutes at 37° C. […] The percentage inhibition of AChE by each concentration of drug is calculated by comparison with that of enzyme in the absence of drug.
# mice = conditions: mouse, in vivo
# Description: Therapeutic Ratio was calculated as LD50 divided by ED50 of ex vivo acetylcholine esterase inhibition.
# [6] = rat brain homogenate, read-out: MAO-B Inhibition In vitro IC50
# [7] = rat brain homogenate, read-out: MAO-A Inhibition In vitro IC50
# [8] = MAO-B Inhibition In vitro IC50, rat brain homogenate
# [9] = MAO-A Inhibition In vitro IC50, rat brain homogenate
SMILES,MAO-A Inhibition Ex vivo ED50 (MAO-A [1]),MAO-B Inhibition Ex vivo ED50 (MAO-B [2]),AChE Inhibition Ex vivo ED50 (AC) (whole brain AChE),AChE Inhibition Time to peak activity t (whole brain AChE),IC50 (MAO-B [3]; [6]),IC50 (MAO-A [4]; [7]),IC50 ([5]; AChE Inhibition In vitro IC50),IC50 (MAO-B [3]; [8]),IC50 (MAO-A [4]; [9]),Acute Toxicity LD50 (LD) (mice),Therapeutic Ratio LD/AC (mice),IC50 ([5]; read-out: AChE Inhibition In vitro IC50)
C#CCNC1CCc2ccc(OC(=O)N(C)c3ccccc3)cc21 (stereo not drawn) [Compound 62],>>200 μmoles/kg,>>200 μmoles/kg,290 µmol/kg,60 min,100 µM,80 µM,0.57 µM,–,–,–,–,–
C#CCN(CC)C1CCc2ccc(OC(=O)N(C)C)cc21 (stereo not drawn) [Compound 31],>100 µmol/kg,>100 µmol/kg,110 µmol/kg,–,–,–,10 µM,> 1000 µM,> 1000 µM,–,–,–
C#CCNC1CCc2ccc(OC(=O)N(C)c3ccc(OC)cc3)cc21 (stereo not drawn) [Compound 61],>100 µmol/kg,>100 µmol/kg,47 µmol/kg,–,500 µM,700 µM,0.75 µM,–,–,–,–,–
C#CCNC1CCc2ccc(OC(=O)N(C)CCC)cc21 (stereo not drawn) [Compound 26],>>440 μmoles/kg,333 µmol/kg,120 µmol/kg,30 to 60 min,–,–,17 µM,264 µM,114 µM,1200 µmol/kg,9,–
C#CCNC1CCc2ccc(OC(=O)N(C)C3CCCCC3)cc21 (stereo not drawn) [Compound 38],>400 µmol/kg,>400 µmol/kg,>1000 µmol/kg,–,10 µM,170 µM,33 µM,–,–,–,–,–
C#CCNC1CCc2ccc(OC(=O)NCCC)cc21 (stereo not drawn) [Compound 57],–,–,70 µmol/kg,–,25 µM,–,–,–,89 µM,–,–,2.4 µM
C#CCNC1CCc2c(OC(=O)N(C)CC)cccc21 (stereo not drawn) [Compound 35],–,–,10 µmol/kg,60 min,–,–,2.2 µM,100 µM,< 1 µM,33 µmol/kg,3.3,–
